Our source for the IC50 values is patent US20240368106A1, “HYDROXY AND ALKOXY COUMARINS AS MODULATORS OF POLRMT” (Pretzel Therapeutics, Inc., priority 2021, published 2024).

Structures are written as SMILES. Some results are limits rather than exact numbers.

The term IC50 denotes the concentration at which inhibition is half-maximal. A higher IC50 goes with lower potency.

The assay deals with POLRMT (Homo sapiens (Human), UniProt O00411). The assay can be described thus: homogeneous TR-FRET assay of mitochondrial transcription (inhibition of POLRMT). In kind it is biochemical. As to conditions: 7.5 nM POLRMT, 15 nM TFB2M, 30 nM TFAM, 0.5 nM DNA template, 500 μM NTPs, 37° C., 60 minutes. The method, then: The inhibitory activity of the compounds of the present invention against POLRMT were determined by assays based on Bergbrede, T., et al., “An adaptable high-throughput technology enabling the identification of specific transcription modulators,” SLAC Discov., 22, 378-386 (2017).
POLRMT, sequence (O00411 42-1230): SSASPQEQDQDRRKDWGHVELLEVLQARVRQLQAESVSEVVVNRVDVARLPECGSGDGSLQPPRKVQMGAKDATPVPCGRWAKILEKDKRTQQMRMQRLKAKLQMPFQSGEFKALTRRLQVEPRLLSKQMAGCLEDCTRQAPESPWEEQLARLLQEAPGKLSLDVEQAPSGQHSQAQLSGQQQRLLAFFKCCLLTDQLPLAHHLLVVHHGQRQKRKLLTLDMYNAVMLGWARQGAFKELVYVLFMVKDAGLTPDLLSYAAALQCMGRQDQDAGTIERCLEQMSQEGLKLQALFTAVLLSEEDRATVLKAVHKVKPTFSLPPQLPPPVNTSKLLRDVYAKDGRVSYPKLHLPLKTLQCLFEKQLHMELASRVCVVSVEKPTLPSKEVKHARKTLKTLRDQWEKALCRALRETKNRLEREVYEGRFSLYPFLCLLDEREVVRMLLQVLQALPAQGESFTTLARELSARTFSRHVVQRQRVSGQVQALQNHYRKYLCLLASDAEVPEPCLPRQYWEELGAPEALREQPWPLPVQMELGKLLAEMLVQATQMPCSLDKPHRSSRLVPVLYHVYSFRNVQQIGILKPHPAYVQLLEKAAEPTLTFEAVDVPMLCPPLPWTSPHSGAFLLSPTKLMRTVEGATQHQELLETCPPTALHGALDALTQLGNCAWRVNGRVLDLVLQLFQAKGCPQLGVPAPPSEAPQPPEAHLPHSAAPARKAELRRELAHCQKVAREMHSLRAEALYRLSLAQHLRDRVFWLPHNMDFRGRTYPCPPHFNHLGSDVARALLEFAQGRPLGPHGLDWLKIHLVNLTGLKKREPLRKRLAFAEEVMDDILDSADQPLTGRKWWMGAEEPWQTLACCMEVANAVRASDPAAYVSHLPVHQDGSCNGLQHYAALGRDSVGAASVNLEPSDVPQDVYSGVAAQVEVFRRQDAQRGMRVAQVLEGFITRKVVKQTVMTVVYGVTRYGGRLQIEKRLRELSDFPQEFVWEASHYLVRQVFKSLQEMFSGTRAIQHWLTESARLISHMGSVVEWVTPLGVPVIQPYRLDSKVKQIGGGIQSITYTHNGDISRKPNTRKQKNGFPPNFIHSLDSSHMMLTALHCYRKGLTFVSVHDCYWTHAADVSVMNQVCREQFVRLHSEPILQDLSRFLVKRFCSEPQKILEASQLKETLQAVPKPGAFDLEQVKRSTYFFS
The ability of some compounds of the present invention to inhibit POLRMT were determined in a homogeneous TR-FRET Assay using high-throughput screening in a 384-well plate format. This method is used to monitor the activity of mitochondrial transcription through measurement of its product, a 407 bp long RNA transcript. Detection of the product is facilitated by hybridization of two DNA-oligonucleotide probes to specific and adjacent sequences within the RNA product sequence. Upon annealing of the probes, two fluorophores are coupled directly to an acceptor nucleotide probe (ATT0647, 5′), or introduced via a coupled streptavidin with a biotinylated donor nucleotide probe (Europium cryptate) that is brought into sufficient proximity to serve as a fluorescence-donor-acceptor pair. Thus, a FRET signal at 665 nm is generated upon excitation at 340 nm.
Proteins used as transcription factors (POLRMT: NP_005026.3, TFAM: NP_003192.1, TFB2M: NP_071761.1) are diluted from their stocks to working concentrations of 1 μM, 20 μM and 4 μM respectively, in a dilution buffer containing 20 mM Tris-HCl (pH 8.0), 200 mM NaCl, 10% (v/v) glycerol, 1 mM Dithiothreitol (DTT), 0.5 mM EDTA.
DNA template is a pUC18 plasmid with the mitochondrial light strand promotor sequence (1-477) cloned between HindIII and BamHI sites. The DNA template is restriction linearized proximal to the promotor 3′-end (pUC-LSP). The reaction mixture (10 uL) containing 7.5 nM POLRMT, 15 nM of TFB2M, 30 nM of TFAM, 0.5 nM of DNA template and 500 μM nucleotide triphosphate mix (NTPs) in a reaction buffer (containing 10 mM Tris-HCl (pH 7.5), 10 mM MgCl2, 40 mM NaCl, 10 mM DTT, 0.005% (w/v) Tween-20, 160 units/ml Rnase inhibitor and 0.1 mg/mL BSA) are dispensed to compounds in microplates, using a Thermo Multidrop® dispenser, and incubated at 37° C. in a VWR INCU-Line incubator for 60 minutes after mixing. No nucleotide triphosphate mix is added to negative control samples. Microplates with compounds to be tested in the assay are prepared from 10 mM compound stocks in 100% DMSO, equal amounts of DMSO without any compound are added to positive control and negative control samples.
During the incubation, a mix of the detection reagents is prepared in a buffer such that the enzymatic reaction is terminated due to chelating of Mg-ions and increased ionic strength, containing 50 mM Tris-HCl (pH 7.5), 700 mM NaCl, 20 mM EDTA, and 0.010% (w/v) Tween-20. Europium-streptavidin is pre-incubated with a 200-fold molar excess of a random sequence oligonucleotide to block unspecific binding of oligo, for two hours at ambient temperature in the dark. Afterwards, the blocked Europium-streptavidin is kept on ice until use.
At the end of the enzymatic reaction time, 5 μL detection oligo mix in the detection buffer is added, and assay plates are mixed and kept at ambient temperature for one hour, protected from light. The concentration of the Acceptor nucleotide oligo (e.g., ATTO647N-5′-[…]-3′) and Donor nucleotide oligo (e.g., bio-5′-AACACATCTCT(-bio)GCCAAACCCCA-bio-3′) in each assay well is 1 nM, and 3 nM, respectively.
After incubation with oligo mix, 5 μL of pre-blocked Europium-streptavidin reagent is dispensed to each assay well, assay plates are again mixed and kept at ambient temperature for one hour, protected from light.
The generated signal is measured with BMG Pherastar microtiter plate reader with a TRF light unit, using excitation at 340 nm, an integration time of 200 μs, and a delay time of 100 μs, before detection at 620 nm and 665 nm. The ratio of donor- and acceptor-fluorescence is used as a measure of the generated transcript product (i.e. enzymatic activity).
(TR-FRET usually uses a lanthanide donor and a delayed reading to cut background.)
In the case of `COCC(Oc1ccc2c(-c3ccccc3C)cc(=O)oc2c1)C(=O)N1CCC1` (single isomer, unassigned) [Example 89, 7-((1-(azetidin-1-yl)-3-methoxy-1-oxopropan-2-yl)oxy)-4-(o-tolyl)-2H-chromen-2-one], the IC50 came out at 0.2 µM. On to `COCC(Oc1ccc2c(-c3ccccc3C)cc(=O)oc2c1)C(=O)N1CCC1` (single isomer, unassigned) [Example 90, 7-((1-(azetidin-1-yl)-3-methoxy-1-oxopropan-2-yl)oxy)-4-(o-tolyl)-2H-chromen-2-one], for which 10 µM corresponded to half-maximal inhibition (IC50). Consider `CNC(=O)C(COC)Oc1ccc2c(-c3ccccc3Cl)cc(=O)oc2c1` (single isomer, unassigned) [Example 91, 2-((4-(2-chlorophenyl)-2-oxo-2H-chromen-7-yl)oxy)-3-methoxy-N-methylpropanamide], for which it took 14 µM to reach half-maximal inhibition (IC50).

Take `CNC(=O)C(COC)Oc1ccc2c(-c3ccccc3Cl)cc(=O)oc2c1` (single isomer, unassigned) [Example 92, 2-((4-(2-chlorophenyl)-2-oxo-2H-chromen-7-yl)oxy)-3-methoxy-N-methylpropanamide]: the midpoint of inhibition, the IC50, lay at 0.4 µM.

In turn, `COCC(Oc1ccc2c(-c3ccccc3Cl)cc(=O)oc2c1)C(=O)N(C)C` (single isomer, unassigned) [Example 93, 2-((4-(2-chlorophenyl)-2-oxo-2H-chromen-7-yl)oxy)-3-methoxy-N,N-dimethylpropanamide] had an IC50 of 18 µM. As for `COCC(Oc1ccc2c(-c3ccccc3Cl)cc(=O)oc2c1)C(=O)N(C)C` (single isomer, unassigned) [Example 94, 2-((4-(2-chlorophenyl)-2-oxo-2H-chromen-7-yl)oxy)-3-methoxy-N,N-dimethylpropanamide], the IC50 came to 0.09 µM. In turn, `COCC(Oc1ccc2c(-c3ccccc3Cl)cc(=O)oc2c1)C(N)=O` (single isomer, unassigned) [Example 95, 2-((4-(2-chlorophenyl)-2-oxo-2H-chromen-7-yl)oxy)-3-methoxypropanamide] gave an IC50 of 14 µM. The same measure for `COCC(Oc1ccc2c(-c3ccccc3Cl)cc(=O)oc2c1)C(N)=O` (single isomer, unassigned) [Example 96, 2-((4-(2-chlorophenyl)-2-oxo-2H-chromen-7-yl)oxy)-3-methoxypropanamide]: 0.5 µM. In the case of `CNC(=O)C(CO)Oc1ccc2c(-c3ccccc3C)cc(=O)oc2c1` (single isomer, unassigned) [Example 97, 3-hydroxy-N-methyl-2-[4-(o-tolyl)-2-oxo-chromen-7-yl]oxy-propanamide], the half-maximal inhibitory concentration (IC50) stood at 5 µM. For `CNC(=O)C(CO)Oc1ccc2c(-c3ccccc3C)cc(=O)oc2c1` (single isomer, unassigned) [Example 98, 3-hydroxy-N-methyl-2-[4-(o-tolyl)-2-oxo-chromen-7-yl]oxy-propanamide], the half-inhibitory concentration (IC50) is over 100 µM.

`Cc1ccccc1-c1cc(=O)oc2cc(O)ccc12` [Example 01, 7-hydroxy-4-(o-tolyl)-2H-chromen-2-one] registered a half-inhibitory concentration (IC50) of 3 µM.

Turning to `CCCOc1ccc2c(-c3ccccc3C)cc(=O)oc2c1` [Example 02, 7-propoxy-4-(o-tolyl)-2H-chromen-2-one], the half-inhibitory concentration (IC50) amounted to 0.09 µM.

Compound `Cc1ccccc1-c1cc(=O)oc2cc(OCCO)ccc12` [Example 03, 7-(2-hydroxyethoxy)-4-(o-tolyl)-2H-chromen-2-one] showed an IC50 of 2 µM. The same measure for `COc1ccc2c(-c3ccccc3C)cc(=O)oc2c1` [Example 04, 7-methoxy-4-(o-tolyl)-2H-chromen-2-one]: 2 µM. To `Cc1ccccc1-c1cc(=O)oc2cc(OC(C)C)ccc12` [Example 05, 7-isopropoxy-4-(o-tolyl)-2H-chromen-2-one] belongs 0.1 µM. The same measure for `Cc1ccccc1-c1cc(=O)oc2cc(Oc3ccccc3)ccc12` [Example 06, 7-phenoxy-4-(o-tolyl)-2H-chromen-2-one]: 0.6 µM.

In turn, `Cc1ccccc1-c1cc(=O)oc2cc(OCCc3ccccc3)ccc12` [Example 07, 7-phenethoxy-4-(o-tolyl)-2H-chromen-2-one] had an IC50 of 4 µM.

Turning to `Cc1ccccc1-c1cc(=O)oc2cc(OCCN(C)C)ccc12` [Example 08, 7-(2-(dimethylamino)ethoxy)-4-(o-tolyl)-2H-chromen-2-one], inhibition was half-maximal at 94 µM (IC50). In turn, `COCCOc1ccc2c(-c3ccccc3C)cc(=O)oc2c1` [Example 09, 7-(2-methoxyethoxy)-4-(o-tolyl)-2H-chromen-2-one] registered an IC50 of 0.9 µM. Turning to `CNC(=O)CCOc1ccc2c(-c3ccccc3C)cc(=O)oc2c1` [Example 12, N-methyl-3-((2-oxo-4-(o-tolyl)-2H-chromen-7-yl)oxy)propanamide], inhibition was half-maximal at 7 µM (IC50). To `O=c1cc(-c2ccc(F)cc2Cl)c2ccc(O)cc2o1` [Example 13, 4-(2-chloro-4-fluorophenyl)-7-hydroxy-2H-chromen-2-one] belongs 3 µM; to `COCC(Oc1ccc2c(-c3ccc(F)cc3Cl)cc(=O)oc2c1)C(=O)OC` (centres unmarked) [Example 14, methyl 2-((4-(2-chloro-4-fluorophenyl)-2-oxo-2H-chromen-7-yl)oxy)-3-methoxypropanoate], 0.2 µM; to `O=C([C@@H](CO)Oc1ccc2c(-c3ccc(F)cc3Cl)cc(=O)oc2c1)N1CCCCC1` [Example 15, (R)-4-(2-chloro-4-fluorophenyl)-7-((3-hydroxy-1-oxo-1-(piperidin-1-yl)propan-2-yl)oxy)-2H-chromen-2-one], 0.4 µM.

On to `Cc1cc(O)cc2oc(=O)cc(-c3ccc(F)cc3)c12` [Example 16, 4-(4-fluorophenyl)-7-hydroxy-5-methyl-2H-chromen-2-one], for which the concentration for half-maximal inhibition (IC50) is over 100 µM. To `Cc1cc(O[C@H](C)C(=O)N2CCCCC2)cc2oc(=O)cc(-c3ccc(F)cc3)c12` [Example 19, 4-(4-fluorophenyl)-5-methyl-7-[(1R)-1-methyl-2-oxo-2-(1-piperidyl)ethoxy]chromen-2-one] belongs 0.5 µM; to `Cc1cc(O[C@H](C)C(=O)N(C)C)cc2oc(=O)cc(-c3ccc(F)cc3)c12` [Example 20, (R)-2-((4-(4-fluorophenyl)-5-methyl-2-oxo-2H-chromen-7-yl)oxy)-N,N-dimethylpropanamide], 2 µM.

`COc1ccc2c(-c3ccc(F)cc3Cl)cc(=O)oc2c1` [Example 21, 4-(2-chloro-4-fluorophenyl)-7-methoxy-2H-chromen-2-one]: the IC50 worked out at 4 µM. `Cc1cc(O)cc2oc(=O)cc(-c3ccccc3)c12` [Example 22, 7-hydroxy-5-methyl-4-phenyl-2H-chromen-2-one] displayed an IC50 of 34 µM.

For `Cc1cc(OC(C)C)cc2oc(=O)cc(-c3ccccc3)c12` [Example 23, 7-isopropoxy-5-methyl-4-phenyl-2H-chromen-2-one], the IC50 came to 87 µM. The same measure for `Cc1cc(OCC(C)C)cc2oc(=O)cc(-c3ccccc3)c12` [Example 24, 7-isobutoxy-5-methyl-4-phenyl-2H-chromen-2-one]: 93 µM; for `Cc1ccccc1-c1cc(=O)oc2cc(OC3CCOCC3)ccc12` [Example 28, 7-((tetrahydro-2H-pyran-4-yl)oxy)-4-(o-tolyl)-2H-chromen-2-one]: 0.5 µM; for `Cc1ccccc1-c1cc(=O)oc2cc(OCC3CCOCC3)ccc12` [Example 29, 7-((tetrahydro-2H-pyran-4-yl)methoxy)-4-(o-tolyl)-2H-chromen-2-one]: 1 µM.
